Source: patent US10323038B2, “Pyrazole compounds and methods of making and using same” (ABIDE THERAPEUTICS, INC., priority 2015, dated 2019)

How the values were obtained:
MAGL = MAGL (Mus musculus (Mouse), UniProt O35678); test: In vitro competitive activity-based protein profiling, MAGL (mouse); type: biochemical; details: for inhibition at 1 µM: read-out: MAGL % inh. 1 μM (mouse)
Method in brief: (§1)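 Mouse brain membrane fraction or cell lysates (mouse assays) and human prefrontal cortex or cell membrane fractions (human assays), 1.0 mg/mL protein, were preincubated with varying inhibitor concentrations for 30 min at 37° C. FP-Rh or HT-01 probe (50 μM stock in DMSO) was then added for another 30 min at 37° C.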

FAAH = FAAH (Mus musculus (Mouse), UniProt O08914); test: In vitro competitive activity-based protein profiling, FAAH (mouse); type: biochemical; details: for inhibition at 1 µM: read-out: FAAH % inh. 1 μM (mouse)
Sequence of FAAH (O08914 whole entry): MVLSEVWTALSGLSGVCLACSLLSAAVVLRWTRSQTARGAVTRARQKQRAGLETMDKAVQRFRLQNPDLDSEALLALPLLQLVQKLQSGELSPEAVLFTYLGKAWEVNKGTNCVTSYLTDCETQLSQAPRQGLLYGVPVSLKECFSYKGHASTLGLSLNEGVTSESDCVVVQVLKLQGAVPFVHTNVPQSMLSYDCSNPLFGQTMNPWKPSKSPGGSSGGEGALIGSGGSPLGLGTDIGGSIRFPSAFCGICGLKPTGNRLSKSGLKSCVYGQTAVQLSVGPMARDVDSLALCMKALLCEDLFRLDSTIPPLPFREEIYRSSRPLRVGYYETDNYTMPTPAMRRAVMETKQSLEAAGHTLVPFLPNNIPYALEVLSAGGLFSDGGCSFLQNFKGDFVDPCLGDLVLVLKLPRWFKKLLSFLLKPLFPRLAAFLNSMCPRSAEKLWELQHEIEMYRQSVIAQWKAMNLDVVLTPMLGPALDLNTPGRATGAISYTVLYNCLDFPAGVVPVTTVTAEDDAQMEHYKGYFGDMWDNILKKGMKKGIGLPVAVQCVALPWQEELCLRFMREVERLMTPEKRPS
Method in brief: as §1

Sequence of MAGL (O35678 whole entry): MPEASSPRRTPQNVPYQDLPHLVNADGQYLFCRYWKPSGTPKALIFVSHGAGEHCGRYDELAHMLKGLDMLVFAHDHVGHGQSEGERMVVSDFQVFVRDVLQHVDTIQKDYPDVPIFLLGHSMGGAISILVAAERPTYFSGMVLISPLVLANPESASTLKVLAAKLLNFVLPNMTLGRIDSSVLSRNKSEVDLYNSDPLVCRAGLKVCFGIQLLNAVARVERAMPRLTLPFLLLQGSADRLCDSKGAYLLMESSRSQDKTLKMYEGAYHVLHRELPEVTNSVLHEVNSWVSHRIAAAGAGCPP

CC(=O)Nc1cnn(C(=O)N2CCN(Cc3cc(N4CCCC4)cc(C(F)(F)F)c3)CC2)c1 [Example 227]
IC50 (MAGL): 100 to 1000 nM
MAGL % inh. 1 μM (mouse) (MAGL; 1 μM): A (A = % inhibition greater than or equal to 75%)
IC50 (FAAH): 100 to 1000 nM
FAAH % inh. 1 μM (mouse) (FAAH; 1 μM): B (B = % inhibition greater than or equal to 50% and less than 75%)

CC(=O)Nc1cnn(C(=O)N2CCN(Cc3ccc(C(F)(F)F)cc3N3C4CCC3COC4)CC2)c1 [Example 228, N-(1-(4-(2-(3-oxa-8-azabicyclo[3.2.1]octan-8-yl)-4-(trifluoromethyl)benzyl)piperazine-1-carbonyl)-1H-pyrazol-4-yl)acetamide]
IC50 (MAGL): 100 to 1000 nM
inhibition at 1 µM (MAGL; 1 μM): ≥ 75%
IC50 (FAAH): 1000 to 10000 nM
inhibition at 1 µM (FAAH; 1 μM): 0 to 25%

CC(=O)N(C)c1cnn(C(=O)N2CC3(CCN(Cc4cccc(Oc5ccccc5)c4)CC3)C2)c1 [Example 229, N-methyl-N-(1-(7-(3-phenoxybenzyl)-2,7-diazaspiro[3.5]nonane-2-carbonyl)-1H-pyrazol-4-yl)acetamide]
IC50 (MAGL): 1000 to 10000 nM
inhibition at 1 µM (MAGL; 1 μM): 50 to 75%
IC50 (FAAH): ≤ 100 nM
inhibition at 1 µM (FAAH; 1 μM): ≥ 75%

CC(=O)N(C)c1cnn(C(=O)N2CC3(CCN(Cc4ccc(CN5CCOCC5)cc4)CC3)C2)c1 [Example 230, N-methyl-N-(1-(7-(4-(morpholinomethyl)benzyl)-2,7-diazaspiro[3.5]nonane-2-carbonyl)-1H-pyrazol-4-yl)acetamide]
inhibition at 1 µM (MAGL; 1 μM): 25 to 50%
inhibition at 1 µM (FAAH; 1 μM): 0 to 25%

CC(=O)N(C)c1cnn(C(=O)N2CCC3(CCN(Cc4ccc(-c5ccccc5)cc4C)C3)C2)c1 (centres unmarked) [Example 232, N-methyl-N-(1-(7-((3-methyl-[1,1′-biphenyl]-4-yl)methyl)-2,7-diazaspiro[4.4]nonane-2-carbonyl)-1H-pyrazol-4-yl)acetamide]
IC50 (MAGL): ≤ 100 nM
inhibition at 1 µM (MAGL; 1 μM): ≥ 75%
IC50 (FAAH): ≤ 100 nM
inhibition at 1 µM (FAAH; 1 μM): ≥ 75%

CC(=O)N(C)c1cnn(C(=O)N2CCC3(CC2)CN(Cc2ccc(CN4CCOCC4)cc2)C3)c1 [Example 233, N-methyl-N-(1-(2-(4-(morpholinomethyl)benzyl)-2,7-diazaspiro[3.5]nonane-7-carbonyl)-1H-pyrazol-4-yl)acetamide]
inhibition at 1 µM (MAGL; 1 μM): 50 to 75%
inhibition at 1 µM (FAAH; 1 μM): 0 to 25%

CC(=O)N(C)c1cnn(C(=O)N2CC3CN(Cc4cccc(Oc5ccccc5)c4)CC3C2)c1 (centres unmarked) [Example 234, N-methyl-N-(1-(5-(3-phenoxybenzyl)octahydropyrrolo[3,4-c]pyrrole-2-carbonyl)-1H-pyrazol-4-yl)acetamide]
IC50 (MAGL): ≤ 100 nM
inhibition at 1 µM (MAGL; 1 μM): ≥ 75%
IC50 (FAAH): ≤ 100 nM
inhibition at 1 µM (FAAH; 1 μM): ≥ 75%

CC(=O)N(C)c1cnn(C(=O)N2CCC3(CC2)CN(Cc2cccc(Oc4ccccc4)c2)C3)c1 [Example 235, N-methyl-N-(1-(2-(3-phenoxybenzyl)-2,7-diazaspiro[3.5]nonane-7-carbonyl)-1H-pyrazol-4-yl)acetamide]
IC50 (MAGL): ≤ 100 nM
inhibition at 1 µM (MAGL; 1 μM): ≥ 75%
IC50 (FAAH): ≤ 100 nM
inhibition at 1 µM (FAAH; 1 μM): ≥ 75%

CC(=O)N(C)c1cnn(C(=O)N2CC3CN(Cc4cccc(Oc5ccc(Cl)cc5)c4)CC3C2)c1 (centres unmarked) [Example 237, N-(1-(5-(3-(4-chlorophenoxy)benzyl)octahydropyrrolo [3,4-c]pyrrole-2-carbonyl)-1H-pyrazol-4-yl)-N-methylacetamide]
IC50 (MAGL): ≤ 100 nM
inhibition at 1 µM (MAGL; 1 μM): ≥ 75%
IC50 (FAAH): ≤ 100 nM
inhibition at 1 µM (FAAH; 1 μM): ≥ 75%

CC(=O)N(C)c1cnn(C(=O)N2CC3CN(Cc4cccc(Oc5ccccn5)c4)CC3C2)c1 (centres unmarked) [Example 238, N-methyl-N-(1-(5-(3-(pyridin-2-yloxy)benzyl)octahydropyrrolo[3,4-c]pyrrole-2-carbonyl)-1H-pyrazol-4-yl)acetamide]
IC50 (MAGL): 100 to 1000 nM
inhibition at 1 µM (MAGL; 1 μM): ≥ 75%
inhibition at 1 µM (FAAH; 1 μM): ≥ 75%

CC(=O)N(C)c1cnn(C(=O)N2CC3CN(Cc4cccc(OCc5ccccc5)c4)CC3C2)c1 (centres unmarked) [Example 239, N-(1-(5-(3-(benzyloxy)benzyl)octahydropyrrolo[3,4-c]pyrrole-2-carbonyl)-1H-pyrazol-4-yl)-N-methylacetamide]
IC50 (MAGL): ≤ 100 nM
inhibition at 1 µM (MAGL; 1 μM): ≥ 75%
IC50 (FAAH): ≤ 100 nM
inhibition at 1 µM (FAAH; 1 μM): ≥ 75%

CC(=O)N(C)c1cnn(C(=O)N2CC3CN(Cc4cccc(Oc5ccccc5Cl)c4)CC3C2)c1 (centres unmarked) [Example 240, N-(1-(5-(3-(2-chlorophenoxy)benzyl)octahydropyrrolo [3,4-c]pyrrole-2-carbonyl)-1H-pyrazol-4-yl)-N-methylacetamide]
IC50 (MAGL): ≤ 100 nM
inhibition at 1 µM (MAGL; 1 μM): ≥ 75%
IC50 (FAAH): ≤ 100 nM
inhibition at 1 µM (FAAH; 1 μM): ≥ 75%

CC(=O)N(C)c1cnn(C(=O)N2CC3CN(Cc4ccc(Oc5ccccc5)cc4)CC3C2)c1 (centres unmarked) [Example 241, N-methyl-N-(1-(5-(4-phenoxybenzyl)octahydropyrrolo[3,4-c]pyrrole-2-carbonyl)-1H-pyrazol-4-yl)acetamide]
IC50 (MAGL): ≤ 100 nM
inhibition at 1 µM (MAGL; 1 μM): ≥ 75%
IC50 (FAAH): ≤ 100 nM
inhibition at 1 µM (FAAH; 1 μM): ≥ 75%

CC(=O)N(C)c1cnn(C(=O)N2CC3CN(Cc4ccc5c(c4)OC(F)(F)O5)CC3C2)c1 (centres unmarked) [Example 242, N-(1-(5-((2,2-difluorobenzo[d][1,3]dioxol-5-yl)methyl)octahydropyrrolo[3,4-c]pyrrole-2-carbonyl)-1H-pyrazol-4-yl)-N-methylacetamide]
IC50 (MAGL): ≤ 100 nM
inhibition at 1 µM (MAGL; 1 μM): ≥ 75%
IC50 (FAAH): ≤ 100 nM
inhibition at 1 µM (FAAH; 1 μM): ≥ 75%

CC(=O)N(C)c1cnn(C(=O)N2CC3CN(Cc4cccc(Oc5cccc(Cl)c5)c4)CC3C2)c1 (centres unmarked) [Example 244, N-(1-(5-(3-(3-chlorophenoxy)benzyl)octahydropyrrolo [3,4-c]pyrrole-2-carbonyl)-1H-pyrazol-4-yl)-N-methylacetamide]
IC50 (MAGL): ≤ 100 nM
inhibition at 1 µM (MAGL; 1 μM): ≥ 75%
IC50 (FAAH): ≤ 100 nM
inhibition at 1 µM (FAAH; 1 μM): ≥ 75%

CC(=O)N(C)c1cnn(C(=O)N2CC3CN(Cc4ccc(Oc5ccc(Cl)cc5)cc4)CC3C2)c1 (centres unmarked) [Example 245, N-(1-(5-(4-(4-chlorophenoxy)benzyl)octahydropyrrolo [3,4-c]pyrrole-2-carbonyl)-1H-pyrazol-4-yl)-N-methylacetamide]
IC50 (MAGL): ≤ 100 nM
inhibition at 1 µM (MAGL; 1 μM): ≥ 75%
IC50 (FAAH): ≤ 100 nM
inhibition at 1 µM (FAAH; 1 μM): ≥ 75%

CC(=O)N(C)c1cnn(C(=O)N2CC3CN(Cc4cc(F)c(F)cc4F)CC3C2)c1 (centres unmarked) [Example 246, N-methyl-N-(1-(5-(2,4,5-trifluorobenzyl)octahydropyrrolo[3,4-c]pyrrole-2-carbonyl)-1H-pyrazol-4-yl)acetamide]
IC50 (MAGL): 100 to 1000 nM
inhibition at 1 µM (MAGL; 1 μM): ≥ 75%
IC50 (FAAH): ≤ 100 nM
inhibition at 1 µM (FAAH; 1 μM): ≥ 75%

CC(=O)N(C)c1cnn(C(=O)N2CC3CN(Cc4cc(Cl)cc(N5CCC6(CCOCC6)C5)c4)CC3C2)c1 (centres unmarked) [Example 247, N-(1-(5-(3-chloro-5-(8-oxa-2-azaspiro[4.5]decan-2-yl)benzyl)octahydropyrrolo[3,4-c]pyrrole-2-carbonyl)-1H-pyrazol-4-yl)-N-methylacetamide]
inhibition at 1 µM (MAGL; 1 μM): ≥ 75%
inhibition at 1 µM (FAAH; 1 μM): ≥ 75%

CC(=O)N(C)c1cnn(C(=O)N2CC3CN(Cc4ccc(OCc5ccccc5)cc4)CC3C2)c1 (centres unmarked) [Example 248, N-(1-(5-(4-(benzyloxy)benzyl)octahydropyrrolo[3,4-c]pyrrole-2-carbonyl)-1H-pyrazol-4-yl)-N-methylacetamide]
IC50 (MAGL): ≤ 100 nM
inhibition at 1 µM (MAGL; 1 μM): ≥ 75%
IC50 (FAAH): ≤ 100 nM
inhibition at 1 µM (FAAH; 1 μM): ≥ 75%

CC(=O)N(C)c1cnn(C(=O)N2CC3CN(Cc4cccc(OCc5ccc(Cl)cc5)c4)CC3C2)c1 (centres unmarked) [Example 249, N-(1-(5-(3-((4-chlorobenzyl)oxy)benzyl)octahydropyrrolo[3,4-c]pyrrole-2-carbonyl)-1H-pyrazol-4-yl)-N-methylacetamide]
inhibition at 1 µM (MAGL; 1 μM): ≥ 75%
inhibition at 1 µM (FAAH; 1 μM): ≥ 75%

CC(=O)N(C)c1cnn(C(=O)N2CC3CN(Cc4ccc(N5C[C@@H]6C[C@H]5CN6C)cc4C(F)(F)F)CC3C2)c1 (stereo partly drawn) [Example 250, N-methyl-N-(1-(5-(4-((1S,4S)-5-methyl-2,5-diazabicyclo[2.2.1]heptan-2-yl)-2-(trifluoromethyl)benzyl)octahydropyrrolo [3,4-c]pyrrole-2-carbonyl)-1H-pyrazol-4-yl)acetamide]
inhibition at 1 µM (MAGL; 1 μM): ≥ 75%
inhibition at 1 µM (FAAH; 1 μM): 50 to 75%

CC(=O)N(C)c1cnn(C(=O)N2CC3CN(Cc4cc(Cl)cc(OCc5ccccc5)c4)CC3C2)c1 (centres unmarked) [Example 251, N-(1-(5-(3-(benzyloxy)-5-chlorobenzyl)octahydropyrrolo[3,4-c]pyrrole-2-carbonyl)-1H-pyrazol-4-yl)-N-methylacetamide]
IC50 (MAGL): ≤ 100 nM
inhibition at 1 µM (MAGL; 1 μM): ≥ 75%
IC50 (FAAH): ≤ 100 nM
inhibition at 1 µM (FAAH; 1 μM): ≥ 75%

CC(=O)N(C)c1cnn(C(=O)N2CC3CN(Cc4ccc(Oc5nc6ccccc6s5)cc4Cl)CC3C2)c1 (centres unmarked) [Example 252, N-(1-(5-(4-(benzo[d]thiazol-2-yloxy)-2-chlorobenzyl)octahydropyrrolo[3,4-c]pyrrole-2-carbonyl)-1H-pyrazol-4-yl)-N-methylacetamide]
inhibition at 1 µM (MAGL; 1 μM): ≥ 75%
inhibition at 1 µM (FAAH; 1 μM): ≥ 75%

CC(=O)N(C)c1cnn(C(=O)N2CC3CN(Cc4ccc(OC(C)C)cc4Cl)CC3C2)c1 (centres unmarked) [Example 253, N-(1-(5-(2-chloro-4-isopropoxybenzyl)octahydropyrrolo[3,4-c]pyrrole-2-carbonyl)-1H-pyrazol-4-yl)-N-methylacetamide]
inhibition at 1 µM (MAGL; 1 μM): ≥ 75%
inhibition at 1 µM (FAAH; 1 μM): ≥ 75%

CC(=O)N(C)c1cnn(C(=O)N2CC3CN(Cc4ccc(Oc5nc6ccccc6s5)cc4C(F)(F)F)CC3C2)c1 (centres unmarked) [Example 254, N-(1-(5-(4-(benzo[d]thiazol-2-yloxy)-2-(trifluoromethyl)benzyl)octahydropyrrolo [3,4-c]pyrrole-2-carbonyl)-1H-pyrazol-4-yl)-N-methylacetamide]
inhibition at 1 µM (MAGL; 1 μM): ≥ 75%
inhibition at 1 µM (FAAH; 1 μM): ≥ 75%
